# Laboratory results taken from patent publication US20220289698A1, “INHIBITORS OF HUMAN ATGL” (Karl-Franzens-Universität Graz, priority 2019, published 2022).
# Where two headings read alike, the source gives them in different places.
# Experiments:
# human ATGL = target: T1, human ATGL (Homo sapiens, UniProt Q96AD5); assay: TG hydrolase activity, Expi cell lysates expressing human ATGL + CGI-58, radiolabelled triolein; format: biochemical
# T1 construct: made in house; host or cells: Expi cells (lysate, not purified)
# T1 sequence (Q96AD5 1-504): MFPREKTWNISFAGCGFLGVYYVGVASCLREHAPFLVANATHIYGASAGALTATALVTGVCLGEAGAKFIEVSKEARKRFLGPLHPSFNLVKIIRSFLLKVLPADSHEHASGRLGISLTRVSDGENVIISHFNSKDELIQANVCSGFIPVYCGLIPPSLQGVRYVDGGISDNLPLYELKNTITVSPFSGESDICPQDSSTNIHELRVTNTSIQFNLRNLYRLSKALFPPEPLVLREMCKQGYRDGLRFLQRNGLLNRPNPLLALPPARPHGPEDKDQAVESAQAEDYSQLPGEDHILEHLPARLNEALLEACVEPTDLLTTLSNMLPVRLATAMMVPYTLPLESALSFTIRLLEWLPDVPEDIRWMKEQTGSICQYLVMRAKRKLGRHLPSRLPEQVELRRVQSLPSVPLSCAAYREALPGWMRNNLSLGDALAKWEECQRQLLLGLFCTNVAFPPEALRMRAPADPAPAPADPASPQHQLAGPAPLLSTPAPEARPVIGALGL
# Description: (§1) Triglyceride (TG) hydrolase activity was measured as previously described (Schweiger M et al., Methods in Enzymology, 2014, 538:171-93). In brief, TG hydrolase activity was determined by adding recombinant purified CGI-58 to Expi cell lysates expressing human ATGL. For determination of cross-species reactivity Expi lysates expressing ATGL from different model organisms (e.g. mouse, rat, rhesus monkey, goat, etc.) were used. Samples were incubated with DMSO (carrier) or increasing concentrations of ATGL inhibitors dissolved in DMSO. TG substrate was prepared by emulsifying 330 μM radiolabelled triolein (40,000 c.p.m./nmol) and 45 μM phosphatidylcholine/phosphatidylinositol (3:1) in 100 mM potassium phosphate buffer (pH 7.0) by sonication and adjusting to 5% essentially FA-free BSA. TG substrate was added to the reaction mixture and incubated for 1 h at 37° C. in the water bath. The reaction was terminated by adding methanol/chloroform/heptane (10:9:7) and 0.1 M potassium carbonate with 0.1 M boric acid (pH 10.5). After centrifugation at 800 g for 15 min the radioactivity in the upper phase was determined by liquid scintillation counting and the rate of FA hydrolysis was calculated. IC50 values were determined as inhibitor concentration capable of inhibiting TG hydrolase activity by 50% as compared to DMSO control. Samples were measured as duplicates. The determination of IC50 values for human ATGL is illustrated in FIG. 1.
# murine ATGL = target: T2, murine ATGL (Mus musculus, UniProt Q8BJ56); assay: TG hydrolase activity, Expi lysates expressing mouse ATGL + CGI-58, radiolabelled triolein; format: biochemical
# T2 construct: made in house; host or cells: Expi cells (lysate)
# T2 sequence (Q8BJ56 1-486): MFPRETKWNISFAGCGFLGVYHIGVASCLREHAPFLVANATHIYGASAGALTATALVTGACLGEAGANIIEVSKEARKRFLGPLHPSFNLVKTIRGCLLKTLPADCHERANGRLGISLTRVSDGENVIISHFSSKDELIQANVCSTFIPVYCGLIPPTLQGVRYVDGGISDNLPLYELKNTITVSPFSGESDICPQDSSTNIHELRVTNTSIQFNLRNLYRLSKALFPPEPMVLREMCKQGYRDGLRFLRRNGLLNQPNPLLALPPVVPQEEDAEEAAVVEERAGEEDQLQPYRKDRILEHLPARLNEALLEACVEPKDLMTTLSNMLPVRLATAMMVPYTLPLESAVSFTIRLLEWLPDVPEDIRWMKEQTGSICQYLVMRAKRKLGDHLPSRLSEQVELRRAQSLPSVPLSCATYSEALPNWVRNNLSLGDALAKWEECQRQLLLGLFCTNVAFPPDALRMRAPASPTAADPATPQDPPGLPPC
# Description: as §1
# Lysates from Expi cells overexpressing ATGL from mouse (Mus musculus) were incubated with recombinant purified ATGL co-activator CGI-58 and ATGL inhibitors at 50 μM. Subsequently, substrate containing radiolabeled triolein was added and liberated FA were extracted and quantified by liquid scintillation. Inhibitors were dissolved in DMSO which was used as control. Samples were measured in triplicates.
# [1] = Example 237, read-out: Inhibition of human ATGL − IC50
# [2] = 50 μM compound, Example 237, read-out: Inhibition of murine ATGL at 50 μM − mean [%]
# [3] = 50 μM, Example 238, read-out: % Inhibition of murine ATGL at 50 μM
# [4] = Example 238, read-out: Inhibition of human ATGL IC50
# [5] = values of text and figure legend, read-out: IC50 on human ATGL (hATGL)
smiles,measurement,setting,value
"C/C=C/COC(=O)c1csc(-c2ccc(OCC)cc2)n1 [Example 121, (E)-but-2-en-1-yl 2-(4-ethoxyphenyl)thiazole-4-carboxylate]",IC50,human ATGL; [1],12 µM
same,inhibition at 50 µM,murine ATGL; [2],41.2%
"CCOC(=O)c1csc(-c2ccc(OC)cc2)n1 [Example 102, Ethyl 2-(4-methoxyphenyl)thiazole-4-carboxylate]",IC50,human ATGL; [1],6 µM
same,inhibition at 50 µM,murine ATGL; [2],21.5%
"CCOc1ccc(-c2nc(C(=O)OC(C)CC)cs2)cc1 (stereo not drawn) [Example 114, sec-Butyl 2-(4-ethoxyphenyl)thiazole-4-carboxylate]",IC50,human ATGL; [1],3 µM
same,inhibition at 50 µM,murine ATGL; [2],7%
COc1cc(C(=O)OC(C)C)nc(-c2ccc(C(C)OC)cc2)c1 (stereo not drawn) [Example 62],IC50,human ATGL; [1],2 µM
"CCOc1ccc(-c2nc(C(=O)OC(C)(C)C)c(N3CCCCC3)s2)cc1 [Example 167, tert-Butyl 2-(4-ethoxyphenyl)-5-(piperidin-1-yl)thiazole-4-carboxylate]",IC50,human ATGL; [1],10 µM
CCOc1ccc(-c2nc(C(=O)OC(C)C)c(OC(C)C)s2)cc1 [Example 177],IC50,human ATGL; [1],25 µM
same,inhibition at 50 µM,murine ATGL; [2],0%
"CCOC(=O)c1csc(-c2ccc(N(C)C)cc2)n1 [Example 103, Ethyl 2-(4-(dimethylamino)phenyl)thiazole-4-carboxylate]",IC50,human ATGL; [1],25 µM
same,inhibition at 50 µM,murine ATGL; [2],33.9%
"CCOc1ccc(-c2nc(C(=O)OC3CCCC3)cs2)cc1 [Example 127, Cyclopentyl 2-(4-ethoxyphenyl)thiazole-4-carboxylate]",IC50,human ATGL; [1],5 µM
same,inhibition at 50 µM,murine ATGL; [2],0%
"CCOC(=O)c1nc(-c2ccc(OCC)cc2)sc1C(C)=O [Example 172, Ethyl 5-acetyl-2-(4-ethoxyphenyl)thiazole-4-carboxylate]",IC50,human ATGL; [1],20 µM
"CCCCOc1ccc(-c2nc(C(=O)OCC)cs2)cc1 [Example 109, Ethyl 2-(4-butoxyphenyl)thiazole-4-carboxylate]",IC50,human ATGL; [1],10 µM
same,inhibition at 50 µM,murine ATGL; [2],0%
"CCOc1ccc(-c2nc(C(=O)OC3CC3)cs2)cc1 [Example 151, Cyclopropyl 2-(4-ethoxyphenyl)thiazole-4-carboxylate]",IC50,human ATGL; [1],2.5 µM
same,inhibition at 50 µM,murine ATGL; [2],12.1%
"CCOC(=O)c1nc(-c2ccc(OCC)cc2)sc1C [Example 124, Ethyl 2-(4-ethoxyphenyl)-5-methylthiazole-4-carboxylate]",IC50,human ATGL; [1],17 µM
same,inhibition at 50 µM,murine ATGL; [2],33.7%
"CCC/C=C/COC(=O)c1csc(-c2ccc(OCC)cc2)n1 [Example 155, (E)-Hex-2-en-1-yl 2-(4-ethoxyphenyl)thiazole-4-carboxylate]",IC50,human ATGL; [1],15 µM
CCOC(=O)c1cccc(-c2ccc(COC(C)=O)cc2)n1 [Example 93],IC50,human ATGL; [1],20 µM
COCOc1ccc(-c2cccc(C(=O)OC(C)C)n2)cc1 [Example 13],IC50,human ATGL; [1],8 µM
"CCOC(=O)c1nc(-c2ccc(OCC)cc2)sc1Br [Example 164, Ethyl 5-bromo-2-(4-ethoxyphenyl)thiazole-4-carboxylate]",IC50,human ATGL; [1],25 µM
"CCOc1ccc(-c2nc(C(=O)OC(C)(C)C)c(C(=O)C(C)C)s2)cc1 [Example 173, tert-Butyl 2-(4-ethoxyphenyl)-5-isobutyrylthiazole-4-carboxylate]",IC50,human ATGL; [1],12 µM
"CCOc1ccc(-c2nc(C(=O)OC(C)(C)C)c(C(=O)C3CC3)s2)cc1 [Example 174, tert-Butyl 5-(cyclopropanecarbonyl)-2-(4-ethoxyphenyl)thiazole-4-carboxylate]",IC50,human ATGL; [1],25 µM
"CCOc1ccc(-c2nc(C(=O)OC(C)c3nccs3)cs2)cc1 (stereo not drawn) [Example 225, 1-(Thiazol-2-yl)ethyl 2-(4-ethoxyphenyl)thiazole-4-carboxylate]",inhibition at 50 µM,murine ATGL; [3],68%
"CCOc1ccc(-c2nc(C(=O)OCc3cocn3)cs2)cc1 [Example 218, Oxazol-4-ylmethyl 2-(4-ethoxyphenyl)thiazole-4-carboxylate]",IC50,human ATGL; [4],20 µM
"CCOC(=O)c1cn(-c2ccc(OCC)cc2)cn1 [AM-30, reference compound]",IC50,human ATGL; [5],≥ 200 µM
"COc1ccc(-c2nc(C(=O)OCc3ccsc3)cs2)cc1 [Example 231, Thiophen-3-ylmethyl 2-(4-methoxyphenyl)thiazole-4-carboxylate]",IC50,human ATGL; [4],30 µM
"CCOc1ccc(-c2nc(C(=O)OCc3ccccc3)cs2)cc1 [Example 158, Benzyl 2-(4-ethoxyphenyl)thiazole-4-carboxylate]",IC50,human ATGL; [1],15 µM
"CCOC(=O)c1cnc(-c2ccc(OCC)cc2)s1 [AM-52, reference compound]",IC50,human ATGL; [5],> 200 µM
CC(C)OC(=O)c1cccc(OCCc2ccccc2)n1 [Example 91],IC50,human ATGL; [1],50 µM
"CCOc1ccc(-c2nc(C(=O)OC(C)(C)C)c(C(C)=O)s2)cc1 [Example 171, tert-Butyl 5-acetyl-2-(4-ethoxyphenyl)thiazole-4-carboxylate]",IC50,human ATGL; [1],5 µM
CCCCc1ccc(-c2cc(OC)cc(C(=O)OC(C)C)n2)cc1 [Example 57],IC50,human ATGL; [1],2 µM
CCOc1ccc(-c2nc(C(=O)OCc3cnco3)cs2)cc1 [Example 220],IC50,human ATGL; [4],30 µM
"CCCCCCOC(=O)c1csc(-c2ccc(OCC)cc2)n1 [Example 156, Hexyl 2-(4-ethoxyphenyl)thiazole-4-carboxylate]",IC50,human ATGL; [1],15 µM
"CC(C)Oc1ccc(-c2nc(C(=O)OCc3ccsc3)cs2)cc1 [Example 233, Thiophen-3-ylmethyl 2-(4-Isopropoxyphenyl)thiazole-4-carboxylate]",IC50,human ATGL; [4],10 µM
"C#CCOC(=O)c1csc(-c2ccc(OCC)cc2)n1 [Example 149, Prop-2-yn-1-yl 2-(4-ethoxyphenyl)thiazole-4-carboxylate]",IC50,human ATGL; [1],3 µM
"CCCOc1ccc(-c2nc(C(=O)OCc3ccsc3)cs2)cc1 [Example 232, Thiophen-3-ylmethyl 2-(4-propoxyphenyl)thiazole-4-carboxylate]",IC50,human ATGL; [4],12 µM
CC(C)OC(=O)c1ccc(-c2cccc(C(=O)OC(C)C)n2)cc1 [Example 97],IC50,human ATGL; [1],20 µM
"CCOc1ccc(-c2nc(C(=O)OCc3ccncc3)cs2)cc1 [Example 159, Pyridin-4-ylmethyl 2-(4-ethoxyphenyl)thiazole-4-carboxylate]",IC50,human ATGL; [1],20 µM
"CCOc1ccc(-c2nc(C(=O)OCc3cccnc3)cs2)cc1 [Example 160, Pyridin-3-ylmethyl 2-(4-ethoxyphenyl)thiazole-4-carboxylate]",IC50,human ATGL; [1],15 µM
"CN(C)C(=O)Nc1cccc(-c2ccc(N(C)C)cc2)c1 [atglistatin, reference compound]",IC50,human ATGL; [5],> 200 µM
"CCOC(=O)c1cc(-c2ccc(OCC)cc2)ns1 [AMU-27, reference compound]",IC50,human ATGL; [5],≥ 200 µM
"CCOC(=O)c1cc(-c2ccc(OCC)cc2)no1 [AMU-4-245, reference compound]",IC50,human ATGL; [5],≥ 200 µM
"CCOc1ccc(-c2ccc(C)c(C(=O)OC(C)C)n2)cc1 [NG-469, reference compound]",IC50,human ATGL; [5],> 200 µM
CCOC(=O)c1cccc(-c2ccc(C(C)OC)cc2)n1 (stereo not drawn) [Example 45],IC50,human ATGL; [1],10 µM
"CCOC(=O)c1nc(-c2ccc(OCC)cc2)sc1I [Example 165, Ethyl 2-(4-ethoxyphenyl)-5-iodothiazole-4-carboxylate]",IC50,human ATGL; [1],5 µM
"CCOC(=O)c1nc(-c2ccc(OCC)cc2)sc1C(C)C [Example 227, Ethyl 2-(4-ethoxyphenyl)-5-isopropylthiazole-4-carboxylate]",inhibition at 50 µM,murine ATGL; [3],44%
